Experimental data: patent US20120020940A1, “ANTIMICROBIAL PEPTIDES” (Helmholtz Zentrum München Deutsches Forschungszentrum Für …, priority 2008, published 2012)
Where two headings read alike, the source gives them in different places. No end group written: not given here.

Tests used:
Staphylococcus aureus = assay type: cell-based
Method: (§1) In-vitro inhibition assays were performed in sterile ELISA-plates (Greiner bio-one, Frickenhausen or Nunc, Wiesbaden). Antimicrobial peptides were dissolved in 0.01% acetic acid containing 0.2% BSA and stored at −20° C. […] After incubation for one day at 27° C. growth inhibition of the bacteria was analyzed by a ELISA microplate reader.

Pseudomonas aeruginosa = assay type: cell-based
Method: as §1

Yersinia enterocolitica = assay type: cell-based
Method: as §1

[1] = tested on: Staphylococcus epidermidis; assay type: cell-based
Method: as §1

Escherichia coli (DH5α) = assay type: cell-based
Method: as §1

[2] = tested on: Clavibacter michiganensis; test: MIC and lethal concentration (Example 3); assay type: cell-based; settings: Table 2; for MIC (>90% inhibition): 1-2 days at 25° C.; for LC, lethal concentration (100% inhibition): at least 4 days of incubation
Method: (§2) In-vitro inhibition assays were performed in sterile flat-bottom 96-well plates (Greiner bio-one, Frickenhausen). Antimicrobial peptides were dissolved in 0.01% acetic acid containing 0.2% BSA (500 μg/ml), filter sterilized and stored at −20° C. For inhibition assays dilutions of peptides ranging from 5 to 200 μg/ml were prepared and 10 μl (antibacterial assay) or 20 μl (antifungal assay) of each concentration was loaded per well.
(§3) Bacteria colonies from overnight agar plate cultures were resuspended into 5 ml LB-medium or HPG-medium (OD600 nm=0.08-0.1) and diluted into LB-medium/HPG-medium (1:100). 90 μl of this suspension containing about 10^5-10^6 CFU/ml of tested bacteria were added to each well resulting in final peptide concentrations of 0, 0.5, 1, 2, 5, 10, and 20 μg/ml. […] The lowest concentration, in which there is no observable growth (>90% inhibition) is referred to as minimal inhibitory concentration (MIC). […] For each peptide concentration two identical inhibition assays were performed.

Pseudomonas corrugata [3] = test: MIC and lethal concentration (Example 3); assay type: cell-based; settings: Table 2; for MIC (>90% inhibition): 1-2 days at 25° C.; for LC, lethal concentration (100% inhibition): at least 4 days of incubation
Method: as §2, §3

[4] = tested on: Pectobacterium carotovorum; test: MIC and lethal concentration (Example 3); assay type: cell-based; settings: Table 2; for MIC (>90% inhibition): 1-2 days at 25° C.; for LC, lethal concentration (100% inhibition): at least 4 days of incubation
Method: as §2, §3

Xanthomonas vesicatoria [5] = test: MIC and lethal concentration (Example 3); assay type: cell-based; settings: Table 2; for MIC (>90% inhibition): 1-2 days at 25° C.; for LC, lethal concentration (100% inhibition): at least 4 days of incubation
Method: as §2, §3

[6] = tested on: Pseudomonas syringae pv. tomato; test: MIC and lethal concentration (Example 3); assay type: cell-based; settings: Table 2; for MIC (>90% inhibition): 1-2 days at 25° C.; for LC, lethal concentration (100% inhibition): at least 4 days of incubation
Method: as §2, §3

[7] = tested on: Pseudomonas syringae pv. syringae; test: MIC and lethal concentration (Example 3); assay type: cell-based; settings: Table 2; for MIC (>90% inhibition): 1-2 days at 25° C.; for LC, lethal concentration (100% inhibition): at least 4 days of incubation
Method: as §2, §3

[8] = tested on: Pseudomonas syringae pv. tomato
[9] = tested on: Pseudomonas syringae pv. syringae
Klebsiella pneumoniae = assay type: cell-based
Method: as §1

Klebsiiella oxytoca = assay type: cell-based
Method: as §1

Enterobacter cloacae = assay type: cell-based
Method: as §1

Alternaria alternata = test: MIC, antifungal in-vitro inhibition assay (Example 2); assay type: cell-based; settings: Table 1
Method: as §2
(§4) Spores of fungi were collected by water washes of sporulating cultures grown on 2% malt extract agar and spore concentration was determined by microscopy. The concentration of the spores was adjusted to 1.5-2×10^3 spores/ml in 2% malt extract medium and 80 μl of fungal spores were added per well. The final peptide concentrations used in the fungal inhibition assays were […]. After overnight incubation at room temperature the plate were put on a rotary shaker (300 rpm) for further two days to ensure consistantly growth. Antifungal effects of the peptides were determined by a microplate reader (Alternaria, Fusarium) at OD590 nm or by visual screening of the plates (Botrytis, Cladosporium).
(§5) The lowest peptide concentration leading to complete inhibition of bacterial growth or spore germination/mycelial growth (minimal inhibition concentration, MIC) was determined for each organism-peptide combination. For each peptide concentration two identical inhibition assays were performed.

Botrytis cinerea = test: as above; assay type: cell-based; settings: Table 1
Method: as §2, §4, §5

Cladosporium herbarum = test: as above; assay type: cell-based; settings: Table 1
Method: as §2, §4, §5

[10] = tested on: Pectobacterium carotovorum sub. carotovorum
Pseudomonas corrugata [11] = tested on: Pseudomonas corrugata
Xanthomonas vesicatoria [12] = tested on: Xanthomonas vesicatoria
[13] = tested on: Clavibacter michiganensis sub. michiganensis; settings: overnight 25° C., Table 1
[14] = tested on: human immundeficiency virus (HIV); assay type: cell-based; settings: HeLa cells LC5-RIC pre-incubated 30 min with peptide, read after 72 h; read-out: IC50, concentration where the infection is decreased by 50% (compared to non-treated controls)
Method: To measure the activity of the designed oligopeptides against human immundeficiency virus (HIV) a fluorescence-based reporter system was used. HeLa cells (LC5-RIC) harbour a reporter gene, which regulates in dependency of HIV Rev and Tat proteins the synthesis of a red fluorescing protein. In this way the infection of the HeLa cells (LC5-RIC) is indicated and the infection rate can be quantified using a fluorescence microplate reader.
(§6) Antimicrobial oligopeptides were dissolved in 0.01% acetic acid containing 0.2% BSA (500 μg/ml), filter sterilized and stored at −20° C. […] (in 5% CO2). Afterwards, virus particles were added to the pre-treated HeLa cells and the infection was quantified by measuring red fluorescence with a fluorescence microplate reader after 72 h incubation. The viability of the HeLa cells was determined by measuring the activity of the mitochondrial dehydrogenase according to Lindl and Bauer (1994) and Mosmann (1983).

HeLa cells = test: Cell viability, mitochondrial dehydrogenase activity; assay type: cell-based; settings: at the IC50 concentration (6.8 μM)
Method: as §6

human erythrocytes = test: Hemolytic activity, hemoglobin release; assay type: cell-based; settings: 45 min at 37° C., Table 3
Method: The hemolytic activity of the peptides was evaluated by determining hemoglobin release of suspensions of fresh human erythrocytes at 405 nm. Human red blood cells were centrifuged and washed three times with Tris-buffer (10 mM Tris, 150 mM NaCl, pH 7.4). Eighty μl of human red blood cells (1.5×10^9/ml) were added to 20 μl of the peptides solution (peptides dissolved in 0.2% BSA, 0.01% HAc) in 96-well plates (Greiner bio-one, Frickenhausen) and incubated for 45 min at 37° C. The endconcentration of the peptides were 0, 20, 50, 100 and 200 μg/ml. After centrifugation (1500×g, 5 min, 20° C.) 30 μl aliquots of the supernatant were transferred to 96-well plates containing 100 μl water. Hemolysis was measured by absorbance at 405 nm with a microplate reader. 100% hemolysis were determined in 2% SDS. The hemolysis percentage was calculated using the following equation: % hemolysis=[(Abs405 nm in the peptide solution−Abs405 nm in peptides solvent)/(Abs405 nm in 2% SDS−Abs405 nm in peptide solvent)]×100.
Further hemolytic activities of the various peptides of the present invention may be taken from the table depicted in example 3, last row indicated as “Hemolytic activity”. In connection therewith, however, the concentrations are stated where at least 50% hemolysis was observed.

Row | Substance | MIC (>90% inhibition) [2] | LC, lethal concentration (100% inhibition) [2] | MIC (>90% inhibition) (Pseudomonas corrugata [3]) | LC, lethal concentration (100% inhibition) (Pseudomonas corrugata [3]) | MIC (>90% inhibition) [4] | LC, lethal concentration (100% inhibition) [4] | MIC (>90% inhibition) (Xanthomonas vesicatoria [5]) | LC, lethal concentration (100% inhibition) (Xanthomonas vesicatoria [5]) | MIC (>90% inhibition) [6] | LC, lethal concentration (100% inhibition) [6] | MIC (>90% inhibition) [7] | LC, lethal concentration (100% inhibition) [7] | MIC (>90% inhibition) (Staphylococcus aureus) | MIC (>90% inhibition) (Pseudomonas aeruginosa) | MIC (>90% inhibition) (Yersinia enterocolitica) | MIC (>90% inhibition) [1] | MIC (>90% inhibition) (Escherichia coli (DH5α); DH5α) | Minimal inhibition concentration (MIC) for complete inhibition of spore germination/mycelial growth (Alternaria alternata) | Minimal inhibition concentration (MIC) for complete inhibition of spore germination/mycelial growth (Botrytis cinerea) | Minimal inhibition concentration (MIC) for complete inhibition of spore germination/mycelial growth (Cladosporium herbarum) | other results
1 | LRKLKKILKKLF-NH2 [SP10-10] | 0.25 µg/mL | 0.5 µg/mL | 0.25/0.25 μg/ml | 0.25/0.25 μg/ml | 2.5 µg/mL | 5.0 µg/mL | 0.1 µg/mL | 0.5 µg/mL | 0.5 µg/mL | 1.0 µg/mL | 0.25 µg/mL | 0.5 µg/mL | – | – | – | – | – | – | – | – | MIC (>90% inhibition) (Staphylococcus aureus; Staphylococcus aureus, one day at 27° C., Table 4): 10 µg/mL; MIC (>90% inhibition) (Pseudomonas aeruginosa; Pseudomonas aeruginosa, one day at 27° C., Table 4): 2 µg/mL; MIC (>90% inhibition) (Yersinia enterocolitica; Yersinia enterocolitica, one day at 27° C., Table 4): >50 µg/mL; MIC (>90% inhibition) ([1]; Staphylococcus epidermidis, one day at 27° C., Table 4): 1 µg/mL; MIC (>90% inhibition) (Escherichia coli (DH5α); Escherichia coli (DH5α), one day at 27° C., Table 4): 1 µg/mL
2 | LRFLKKILKHLF-NH2 [SP10, LRFLKKILKHLF -NH2] | 0.5/0.5 μg/ml | 0.5/0.5 μg/ml | 0.5 µg/mL | 1.0 µg/mL | 1.0 µg/mL | 2.5 µg/mL | 0.5/0.5 μg/ml | 0.5/0.5 μg/ml | 2.5/2.5 μg/ml | 2.5/2.5 μg/ml | 0.5 µg/mL | 1.0 µg/mL | 5 µg/mL | 10 µg/mL | 10 µg/mL | 2 µg/mL | 10 µg/mL | >100 µg/mL | >100 µg/mL | 10 µg/mL | Minimal inhibition concentration (MIC) for complete inhibition of bacterial growth [8]: 10 µg/mL; Minimal inhibition concentration (MIC) for complete inhibition of bacterial growth [9]: 10 µg/mL; MIC (>90% inhibition) (Klebsiella pneumoniae): 20 µg/mL; MIC (>90% inhibition) (Klebsiiella oxytoca): 20 µg/mL; MIC (>90% inhibition) (Enterobacter cloacae): 20 µg/mL; Minimal inhibition concentration (MIC) for complete inhibition of bacterial growth [10]: 20 µg/mL; Minimal inhibition concentration (MIC) for complete inhibition of bacterial growth (Pseudomonas corrugata [11]): 20 µg/mL; Minimal inhibition concentration (MIC) for complete inhibition of bacterial growth (Xanthomonas vesicatoria [12]): 5 µg/mL; Minimal inhibition concentration (MIC) for complete inhibition of bacterial growth [13]: 10 µg/mL
3 | LRFLKKALKKLF-NH2 [SP10-2] | 0.25/0.25 μg/ml | 0.25/0.25 μg/ml | 0.5/0.5 μg/ml | 0.5/0.5 μg/ml | 1.0 µg/mL | 2.5 µg/mL | 0.25/0.25 μg/ml | 0.25/0.25 μg/ml | 0.5/0.5 μg/ml | 0.5/0.5 μg/ml | 0.1 µg/mL | 0.25 µg/mL | 1 µg/mL | 1 µg/mL | 10 µg/mL | 1 µg/mL | 1 µg/mL | – | – | – | –
4 | LRKAKKIAKKLF-NH2 [SP10-11] | 5.0/5.0 μg/ml | 5.0/5.0 μg/ml | 0.5/0.5 μg/ml | 0.5/0.5 μg/ml | >10/>10 μg/ml | >10/>10 μg/ml | 0.5 µg/mL | 1.0 µg/mL | 0.5/0.5 μg/ml | 0.5/0.5 μg/ml | 0.1 µg/mL | 0.25 µg/mL | – | – | – | – | – | – | – | – | IC50 [14]: 6.8 µM; negative/toxic effect on test cells (HeLa cells) (HeLa cells): No negative/toxic effect
5 | LRFLKKILKHLF (also: D-amino acids incorporated, places not given here) [SP10-D] | – | – | – | – | – | – | – | – | – | – | – | – | – | – | – | – | – | 5 µg/mL | 10 µg/mL | 5 µg/mL | Minimal inhibition concentration (MIC) for complete inhibition of bacterial growth ([8]; Pseudomonas syringae pv. tomato, overnight 25° C., Table 1): 0.5 µg/mL; Minimal inhibition concentration (MIC) for complete inhibition of bacterial growth ([9]; Pseudomonas syringae pv. syringae, overnight 25° C., Table 1): 2.5 µg/mL; Minimal inhibition concentration (MIC) for complete inhibition of bacterial growth ([10]; Pectobacterium carotovorum sub. carotovorum, overnight 25° C., Table 1): >40 µg/mL; Hemolytic activity, concentration where at least 25% hemolysis was observed (human erythrocytes): >200 µg/mL; Minimal inhibition concentration (MIC) for complete inhibition of bacterial growth (Pseudomonas corrugata [11]; Pseudomonas corrugata, overnight 25° C., Table 1): 2.5 µg/mL; Minimal inhibition concentration (MIC) for complete inhibition of bacterial growth (Xanthomonas vesicatoria [12]; Xanthomonas vesicatoria, overnight 25° C., Table 1): 2 µg/mL; Minimal inhibition concentration (MIC) for complete inhibition of bacterial growth [13]: 5 µg/mL
